Assay results: patent publication US20070010444A1, “Novel mediator of neurotransmitter and psychostimulant responses” (The Regents of the University of California, priority 2005, published 2007)
“Also recorded” adds a separate entry of the source. Counter-ions that a name gives are not always drawn.

Key:
C. elegans [1] = assay: Acute amphetamine assay of pharyngeal pumping (90 minutes in M9 buffer); format: in vivo, Caenorhabditis elegans
C. elegans [2] = assay: Chronic effect of amphetamine on pharyngeal pumping (plates, 20 hours); format: in vivo, Caenorhabditis elegans; conditions: 5 mM amphetamine plates
C. elegans [3] = assay: Growth of worms on agar plates containing amphetamine
C. elegans [4] = assay: Muscimol effect on rate of pharyngeal contractions (plates with food); format: in vivo, Caenorhabditis elegans; conditions: N2 and eg814, plates with 0, 0.1 and 1 mM muscimol, 20 and 45 minutes

| Structure (SMILES) | pharyngeal contractions, acute effect (C. elegans [1]; N2, 90 minutes in solution of 0, 5 and 10 mM amph) | pharyngeal contractions, acute effect (C. elegans [1]; eg814 mutant, 90 minutes in solution of 0, 5 and 10 mM amph) | rate of pharyngeal contractions (C. elegans [2]; N2, first day adults) | rate of pharyngeal contractions (pumping) (C. elegans [2]; eg814 mutant, first day adults) | gravid adults (C. elegans [3]; eg814 mutant, 5 mM amph, plated at first larval stage, after 5 days) | growth rates (C. elegans [3]; eg814 mutant, 5 mM amphetamine) | growth of worms (C. elegans [3]; long-term exposure, millimolar levels of amphetamine in agar plates) | animals reaching adulthood (C. elegans [3]; wild-type (N2), 5 mM amphetamine plates, after 5 days) | inhibition of pumping (C. elegans [4]) |
| --- | --- | --- | --- | --- | --- | --- | --- | --- | --- |
| C[C@H](N)Cc1ccccc1 [amphetamine, d-amphetamine sulfate] | inhibits pharyngeal contractions of N2 worms in a dose-dependent manner | exhibits resistance to acute amphetamine | greatly reduced rate of pharyngeal contractions | sustained resistance to the inhibition of pumping | ~100% | unaffected growth rates | dramatically suppressed the growth of worms | no wild-type animals are adults |  |
| NCc1cc(=O)[nH]o1 [muscimol] |  |  |  |  |  |  |  |  | exhibited similar inhibition of pumping after both 20 and 45 minutes; also recorded: inhibited pumping in both N2 and eg814 worms with a very similar dose response |
